Test results reported in US20260097047A1, “Small molecule inhibitors of the ribosome biogenesis factor NVL2” (Board of Regents, The University of Texas System, priority 2023, published 2026).

The compounds below were run on HCT116 cells (assay: Cell viability assay (CellTiter-Glo, 72 hours) in HCT116 human colorectal cancer cells). Conditions: Homo sapiens, HCT-116; Table 5; HCT116, 72 hours; read-out: Activity.
Format: cell-based
Summary of the method: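 2,000 cells/well adhered overnight, then compound added by digital dispenser with DMSO normalized to 0.5%. Viability read after 72 h at 37 °C by ATP-based CellTiter-Glo luminescence. IC50 from ten-point curves baseline-corrected to vehicle, five-parameter asymmetric least-squares fit.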

| IC50 [nM] | SMILES |
| --- | --- |
| < 500 | CC#CCN1C(=O)c2ccc(F)cc2Sc2cc(Nc3ncccc3C3CC3)ccc21 [10-(But-2-yn-1-yl)-7-((3-cyclopropylpyridin-2-yl)amino)-3-fluorodibenzo[b,f][1,4]thiazepin-11 (10H)-one] |
| < 500 | CC#CCN1C(=O)c2ccccc2Sc2cc(Nc3ccncc3)ccc21 [10-(But-2-yn-1-yl)-7-(pyridin-4-ylamino)dibenzo[b,f][1,4]thiazepin-11 (10H)-one] |
| < 500 | CC#CCN1C(=O)c2ccccc2Sc2cc(Nc3cncnc3)ccc21 [10-(But-2-yn-1-yl)-7-(pyrimidin-5-ylamino)dibenzo[b,f][1,4]thiazepin-11 (10H)-one] |
| 500 to 1000 | CCC/C=C/CN1C(=O)c2ccccc2Sc2cc(Nc3cc(C#N)ccn3)ccc21 [(E)-2-((10-(Hex-2-en-1-yl)-11-oxo-10,11-dihydrodibenzo[b,f][1,4]thiazepin-7-yl)amino) isonicotinonitrile] |
| < 500 | CC#CCN1C(=O)c2ccc(F)cc2Sc2cc(Nc3ncccc3C)ccc21 [10-(But-2-yn-1-yl)-3-fluoro-7-((3-methylpyridin-2-yl)amino)dibenzo[b,f][1,4]thiazepin-11 (10H)-one] |
| < 500 | CC#CCN1C(=O)c2ccc(F)cc2Sc2cc(Nc3ncccc3F)ccc21 [10-(But-2-yn-1-yl)-3-fluoro-7-((3-fluoropyridin-2-yl)amino)dibenzo[b,f][1,4]thiazepin-11 (10H)-one] |

Same assay, conditions: Homo sapiens, HCT-116; Table 6; HCT116, 72 hours; read-out: Activity

| IC50 [nM] | SMILES |
| --- | --- |
| < 500 | CC#CCN1C(=O)c2ccccc2Sc2cc(NC3CCOC3C)ccc21 (stereo not shown) [10-(But-2-yn-1-yl)-7-((2-methyltetrahydrofuran-3-yl)amino)dibenzo[b,f][1,4]thiazepin-11 (10H)-one] |
| < 500 | CC#CCN1C(=O)c2ccccc2Sc2cc(NC3CCOC3)ccc21 (stereo not shown) [10-(But-2-yn-1-yl)-7-((tetrahydrofuran-3-yl)amino)dibenzo[b,f][1,4]thiazepin-11 (10H)-one] |
| < 500 | CC#CCN1C(=O)c2ccccc2Sc2cc(NC3CC(OC)C3)ccc21 (stereo not shown) [Table 6: —CH2CCMe; 3-MeOcBu; CH/CH; S, 10-(But-2-yn-1-yl)-7-((3-methoxycyclobutyl)amino)dibenzo[b,f][1,4]thiazepin-11 (10H)-one] |
| < 500 | CC#CCN1C(=O)c2ccccc2Sc2cc(NC3COCC3OC)ccc21 (stereo not shown) [10-(But-2-yn-1-yl)-7-((4-methoxytetrahydrofuran-3-yl)amino)dibenzo[b,f][1,4]thiazepin-11 (10H)-one] |

Same assay, conditions: Table 2; HCT116, 72 hours; read-out: Activity

| IC50 [nM] | SMILES |
| --- | --- |
| < 500 | CC#CCN1C(=O)c2ccccc2Sc2cc(NC(=S)N3CCCC3)ccc21 |

Same assay, conditions: Table 3; HCT116, 72 hours; read-out: Activity

| IC50 [nM] | SMILES |
| --- | --- |
| < 500 | CC#CCN1C(=O)c2ccccc2Sc2cc(NC(=O)NC3CC(COC)C3)ccc21 (stereo not shown) [Table 3: —CH2CCMe; 3-MeOCH2-cBu; CH/CH] |

Same assay, conditions: Table 4; HCT116, 72 hours; read-out: Activity

| IC50 [nM] | SMILES |
| --- | --- |
| < 500 | CC#CCN1C(=O)c2ccccc2Sc2cc(NC(=S)NC3CC(COC)C3)cnc21 (stereo not shown) [Table 4: —CH2CCMe; 3-MeOCH2-cBu; N] |
| < 500 | CC#CCN1C(=O)c2ccccc2Sc2cc(NC(=S)N[C@H]3C[C@H](OC)C3)cnc21 [Table 4: —CH2CCMe; trans-3-MeOcBu; N] |
| < 500 | CC#CCN1C(=O)c2ccccc2Sc2cc(NC(=S)N[C@H]3C[C@H](O)C3)cnc21 [Table 4: —CH2CCMe; trans-3-OH-cBu; N] |

Same assay, conditions: Table 5; HCT116, 72 hours; read-out: Activity

| SMILES | IC50 [nM] |
| --- | --- |
| CC#CCN1C(=O)c2ccccc2Sc2cc(Nc3ccc(C)nn3)cnc21 | < 500 |
| CC#CCN1C(=O)c2ccccc2Sc2cc(Nc3ncc(C)nc3C)cnc21 | < 500 |
| CCCC=CCN1C(=O)c2ccccc2Sc2cc(Nc3ncc(C)cc3C)cnc21 | < 500 |
| O=C1c2ccccc2Sc2cc(Nc3cccnn3)cnc2N1CC#CCl | < 500 |

Same assay, conditions: Table 6; HCT116, 72 hours; read-out: Activity

| IC50 [nM] | SMILES |
| --- | --- |
| < 500 | C#CCN1C(=O)c2ccccc2Sc2cc(NC3CC(OC)C3)ccc21 (stereo not shown) [Table 6: —CH2CCH; 3-MeOcBu; CH/CH; S] |
| < 500 | CC#CCN1C(=O)c2ccccc2Sc2cc(NC3CC4(COC4)C3)cnc21 |
| < 500 | O=C1c2ccccc2Sc2cc(NC3CC(O)C3)ccc2N1CC#CCl (stereo not shown) [Table 6: —CH2CCCl; 3-HOcBu; CH/CH; S] |
| < 500 | CC#CCN1C(=O)c2ccccc2Sc2cc(NCC3(C)COC3)cnc21 |

| SMILES | IC50 [nM] |
| --- | --- |
| CC#CCN1C(=O)c2ccccc2Cc2cc(NC3CCCOC3)ccc21 (stereo not shown) | < 500 |

Same assay, conditions: Table 7; cell viability assay, CellTiter-Glo, 72 hours; scaffold drawing 42 with R^2, R^3, X/Y, Z; read-out: Activity

| IC50 [nM] | SMILES |
| --- | --- |
| < 500 | C#CCOCCN1C(=O)c2ccccc2Cc2cc(NC(=O)c3ccc(OC)cc3)ccc21 [—(CH2)2OCH2CCH; 4-MeOPh; CH/CH; CH2] |
| 500 to 1000 | COCCN1C(=O)c2ccccc2Sc2cc(NC(=O)c3ccc(Cl)c(OC)c3)ccc21 [—(CH2)2OMe; 3-MeO,4-ClPh; CH/CH; S] |
| 500 to 1000 | COCCN1C(=O)c2ccccc2Sc2cc(NC(=O)c3ccc(OC(F)F)cc3)ccc21 [—(CH2)2OMe; 4-F2HCOPh; CH/CH; S] |
| < 500 | CCCCCCN1C(=O)c2ccccc2Sc2cc(NC(=O)c3ccoc3)ccc21 [-nHexyl; furan-3-yl; CH/CH; S] |
| 1000 to 5000 | COCCN1C(=O)c2ccccc2Sc2cc(NC(=O)C3CC(=O)C3)ccc21 [—(CH2)2OMe; 3-oxo-cBu; CH/CH; S] |
| 1000 to 5000 | COCCN1C(=O)c2ccccc2Sc2cc(NC(=O)c3ccc(OC(F)(F)F)c(F)c3)ccc21 [—(CH2)2OMe; 3-F,4-F3COPh; CH/CH; S] |
| < 500 | C#CCOCCN1C(=O)c2ccccc2Sc2cc(NC(=O)c3ccc(OC)cc3)ccc21 [—(CH2)2OCH2CCH; 4-MeOPh; CH/CH; S] |
| < 500 | CC=CCN1C(=O)c2ccccc2Sc2cc(NC(=O)c3ccc4scnc4c3)ccc21 |

Same assay, conditions: Table 8; analogs of scaffold drawing 43 defined by R^2, R^3, X/Y, W; read-out: Activity (IC50 class, cell viability assay)

| IC50 [nM] | SMILES |
| --- | --- |
| < 500 | CC#CCN1C(=O)c2cc(F)ccc2Sc2cc(NC(=O)C(C)CCOC)ccc21 (stereo not shown) [—CH2CCMe; MeO(CH2)2CHMe-; CH/CF; CH] |
| < 500 | O=C1c2ccccc2Sc2cc(NC(=O)[C@H]3C[C@@H](O)C3)cnc2N1CC#CC1CC1 [—CH2CC^cPr; cis-3-OH-cBu; CH/CH; N] |
| < 500 | CC#CCN1C(=O)c2ccccc2Sc2cc(NC(=O)[C@@H]3C[C@H]3C(=O)OC)cnc21 (relative stereo) [—CH2CCMe; trans-2-MeO2C-cPr; CH/CH; N] |
| < 500 | C#CCN1C(=O)c2ccc(Cl)cc2Sc2cc(NC(=O)[C@H]3C[C@H](OC)C3)ccc21 [—CH2CCH; trans-3-MeOcBu; CCl/CH; CH] |
| < 500 | COCC=CC(=O)Nc1cnc2c(c1)Sc1ccccc1C(=O)N2CC#CC(F)(F)F [—CH2CCCF3; CH═CHCH2OMe; CH/CH; N] |
| < 500 | CC#CCN1C(=O)c2ccc(Cl)cc2Sc2cc(NC(=O)[C@H]3C[C@@H](O)C3)cnc21 [—CH2CCMe; cis-3-OH-cBu; CCI/CH; N] |
| < 500 | O=C(C=CCO)Nc1cnc2c(c1)Sc1ccccc1C(=O)N2CC#CC(F)(F)F [—CH2CCCF3; CH—═CHCH2OH; CH/CH; N] |
| < 500 | C#CCN1C(=O)c2ccccc2Sc2cc(NC(=O)C3CC4(CC(=NOC)C4)C3)cnc21 (stereo not shown) |
| < 500 | CC#CCN1C(=O)c2ccccc2Sc2cc(NC(=O)CCC#N)ccc21 [—CH2CCMe; (CH2)2CN; CH/CH; CH] |
| < 500 | C#CCN1C(=O)c2cc(F)ccc2Sc2cc(NC(=O)[C@H]3C[C@H](OC)C3)ccc21 [—CH2CCH; trans-3-MeOcBu; CH/CF; CH] |
| < 500 | CC#CCN1C(=O)c2ccccc2Sc2cc(NC(=O)c3ccc4scnc4c3)ccc21 |
| < 500 | O=C(CC1COC1)Nc1ccc2c(c1)Sc1ccc(F)cc1C(=O)N2CC#CC1CC1 [—CH2CC^cPr; (oxetan-3-yl)CH2; CH/CF; CH] |
| < 500 | O=C(Nc1cnc2c(c1)Sc1ccccc1C(=O)N2CC#CC1CC1)C1CC2(CC(=NO)C2)C1 (stereo not shown) |
| < 500 | CC#CCN1C(=O)c2ccc(F)cc2Sc2cc(NC(=O)C3CC4(CC(=NOC)C4)C3)ccc21 (stereo not shown) |
| < 500 | CON=C1CC2(C1)CC(C(=O)Nc1ccc3c(c1)Sc1ccccc1C(=O)N3CC#CCl)C2 (stereo not shown) |
| < 500 | O=C1CC2(C1)CC(C(=O)Nc1cnc3c(c1)Sc1ccccc1C(=O)N3CC#CC1CC1)C2 |
| < 500 | CC#CCN1C(=O)c2ccc(Cl)cc2Sc2cc(NC(=O)C3CC4(COC4)C3)ccc21 |
| < 500 | CC#CCN1C(=O)c2ccc(C#N)cc2Sc2cc(NC(=O)[C@@H]3C[C@H]3COC)cnc21 (relative stereo) [—CH2CCMe; trans-2-MeOCH2-cPr; CCN/CH; N] |
| < 500 | CC#CCN1C(=O)c2ccccc2Sc2cc(NC(=O)C(C)CCOC)cnc21 (stereo not shown) [—CH2CCMe; MeO(CH2)2CHMe-; CH/CH; N] |
| < 500 | CC#CCN1C(=O)c2ccccc2Sc2cc(NC(=O)c3cccc(OC)c3)ccc21 [—CH2CCMe; 3-MeOPh; CH/CH; CH] |
| < 500 | CC#CCN1C(=O)c2ccccc2Sc2cc(NC(=O)C34CC(F)(C3)C4)ccc21 |
| 500 to 1000 | CC#CCN1C(=O)c2ccccc2Sc2cc(NC(=O)C3CCN(C)C3=O)ccc21 (stereo not shown) |
| < 500 | CO[C@H]1C[C@H](C(=O)Nc2cnc3c(c2)Sc2ccccc2C(=O)N3CC#CC2CC2)C1 [—CH2CC^cPr; trans-3-MeOcBu; CH/CH; N] |
| < 500 | CC#CCN1C(=O)c2cc(F)ccc2Sc2cc(NC(=O)[C@H]3C[C@@H](OC)C3)cnc21 [—CH2CCMe; cis-3-MeOcBu; CH/CF; N] |
| < 500 | CC#CCN1C(=O)c2cc(F)ccc2Sc2cc(NC(=O)C3CC4(CC(=O)C4)C3)ccc21 |

| SMILES | IC50 [nM] |
| --- | --- |
| CC#CCN1C(=O)c2cc(F)ccc2Sc2cc(NC(=O)C3CCCO3)cnc21 (stereo not shown) [—CH2CCMe; tetrahydrofuran-2-yl; CH/CF; N] | < 500 |

Same assay, conditions: Table 9; HCT116, 72 hours; read-out: Activity

| IC50 [nM] | SMILES |
| --- | --- |
| < 500 | COC1CC(C(=O)Nc2ccc3c(c2)C(C#N)c2ccccc2C(=O)N3CC#CCF)C1 (stereo not drawn) [Table 9: —CH2CCCH2F; cis-3-MeOcBu; CHCN] |
| < 500 | COCC1CC(C(=O)Nc2ccc3c(c2)C(C)(O)c2ccccc2C(=O)N3CC#CC2CC2)C1 (stereo not shown) [Table 9: —CH2CCcPr; 3-MeOCH2-cBu; CMeOH] |
| < 500 | COCC1CC(C(=O)Nc2ccc3c(c2)C(C)(O)c2ccccc2C(=O)N3CC#CCl)C1 (stereo not shown) [Table 9: —CH2CCCl; 3-MeOCH2-cBu; CMeOH] |
